Measured values: PMC6933707, “Palmitoylethanolamide counteracts substance P-induced mast cell activation in vitro by stimulating diacylglycerol lipase activity” (Journal of Neuroinflammation, 2019)

What was measured:
[1] = system: RBL-2H3 cells; assay: Histamine release assay (ELISA); type: cell-based, rat
Procedure: (§1) RBL-2H3 cells were plated into 24-well culture dishes at a cell density of 2 × 10^5 cells per well, or into 6-well culture dishes at a cell density of 9 × 10^5 cells per well, for 1 day at 37 °C in 5% CO2 atmosphere. After 1 day, RBL-2H3 cells were stimulated with SP (10 μM) or vehicle (water) and incubated for 15 min at 37 °C in 5% CO2 atmosphere.
SP-stimulated RBL-2H3 cells (2 × 10^5 cells/well) were treated with PEA (10 μM) or vehicle (methanol) for 15 min at 37 °C in 5% CO2 atmosphere. SP-stimulated RBL-2H3 cells were also treated with a CB2 antagonist, AM630 (0.1 μM), in the presence and absence of PEA (10 μM), or JWH133 (0.1 μM) (a CB2 synthetic agonist), and incubated for the indicated time. SP-stimulated RBL-2H3 cells were also treated with 2-AG (0.1 and 1 μM), or co-treated with PEA (0.1 μM) and 2-AG (0.1 μM), and incubated for the indicated time. SP-stimulated RBL-2H3 cells were also co-treated with PEA (10 μM) and OMDM188 (10 μM) (a DAGL inhibitor), and incubated for the indicated time. After 15 min, the supernatants were collected and the amounts of secreted histamine were measured by using a histamine ELISA kit according to the manufacturer’s instructions (Abnova) and by using a reader GENios Pro (Tecan). Data were expressed as nanograms per milliliter of histamine.

[2] = system: RBL-2H3 cells; assay: Toluidine blue staining, percentage of degranulation; type: cell-based, rat
Procedure: SP-stimulated RBL-2H3 cells [plated on poly-L-lysine (33 μg/ml) coated slides (Deckglaser, 21 × 26 mm) into 6-well culture dishes at a cell density of 9 × 10^5 cells per well] were treated and incubated as described above for histamine release assay. After 15 min, the cells were fixed with paraformaldehyde at 4% for 20 min and incubated for 3 min with toluidine blue at 0.01% in 3% acetic acid. Subsequently, a 5 min wash in distilled water and dehydration in increasing alcohols (90%, 100%) were performed. Cells were then clarified by treatment with Xylol for 5 min and finally dried slides were mounted with the DPX histogram upright. The cells were observed using a Leica DMI6000 digital microscope, acquired using the Leica DFC 340FX digital camera connected to the microscope and analyzed using the LAS AF 2.2.0 software. Degranulated RBL-2H3 cells were counted and the percentage of degranulation (based on the number of colorable cells) was calculated.

[3] = biological target: human CB2 receptor (Homo sapiens, UniProt P34972); assay: cAMP Hunter functional activity assay at the CB2 receptors; type: cell-based; set-up: host or cells: CHO-K1; conditions: 2-AG alone, CHO-K1 cells overexpressing human CB2; read-out: IC50, reduction of NKH-477-induced cAMP levels
Procedure: The cAMP Hunter™ eXpress G protein-coupled receptor (GPCR) assay was performed in Chinese Hamster Ovary (CHO)-Kl cells overexpressing the human CB2 receptor. Gi-coupled cAMP modulation was measured following the manufacturer’s protocol (DiscoverX, Fremont, CA). CHO-K1 cells overexpressing the human CB2 receptor were plated into a 96-well plate (3× 10^4 cells/well) and incubated overnight at 37 °C in 5% CO2 atmosphere. The media were aspirated and replaced with 30 μl of assay buffer. Cells were incubated 30 min at 37 °C with 15 μl of 3× concentration-response solutions of 2-AG (0.01–50 μM), or PEA (10 μM), prepared in presence of cell assay buffer containing a 3× of 25 μM NKH-477 solution (a water-soluble analog of Forskolin) to stimulate adenylate cyclase and enhance basal cAMP levels. We also investigated the effect of PEA on 2-AG receptor activation by co-incubation. Therefore, cells were also incubated 30 min at 37 °C with 2-AG and PEA (10 μM) in the presence of NKH-477 to stimulate adenylate cyclase and enhance cAMP levels. […] Relative luminescence units (RLU) were measured by using a GloMax Multi Detection System (Promega Italia). […] The percentage of response was calculated by using the following formula: % RESPONSE = 100% × (1-(RLU of test compound-RLU of NKH-477 positive control)/(RLU of vehicle-RLU of NKH-477 positive control).

[4] = system: RBL-2H3 cells; assay: Toluidine blue staining, percentage of degranulation; type: cell-based, rat; conditions: compound alone 0.1 μM, in the absence of SP (data not shown)
[5] = system: RBL-2H3 cells; assay: LC-APCI-MS measurement of endogenous AEA, 2-AG and PEA levels; type: cell-based, rat; conditions: for decrease of endogenous levels of 2-AG: OMDM188 10 μM in the presence of PEA 10 μM
Procedure: RBL-2H3 cells (9 × 10^5 cells/well) were stimulated with SP (10 μM) and treated with PEA (10 μM) in the presence and absence of OMDM188 (10 μM), for 15 min at 37 °C in 5% CO2 atmosphere. After 15 min, cells and supernatants were collected and homogenized in a solution of CHCl3/CH3OH/Tris-HCl 50 mM pH 7.4 (2:1:1, v/v) containing 10 pmol of [^2H]8-AEA, [^2H]5-2-AG and [^2H]4-PEA as internal standards. The lipid-containing organic phase was dried down, weighed and pre-purified by open-bed chromatography on silica gel. Fractions obtained by eluting the column with a solution of CHCl3/CH3OH (90:10 by vol.) were analyzed by Liquid Chromatography-Atmospheric Pressure Chemical Ionization-Mass Spectrometry (LC-APCI-MS) using a Shimadzu (Shimadzu, Kyoto, Japan) HPLC apparatus (LC-10ADVP) coupled to a Shimadzu (LCMS-2020) quadrupole MS via a Shimadzu APCI interface. LC-APCI-MS analyses of 2-AG and PEA were carried out in the selected ion monitoring mode, using m/z values of 356 and 348 (molecular ions + 1 for deuterated and undeuterated AEA), 384.35 and 379.35 (molecular ions + 1 for deuterated and undeuterated 2-AG), and 304 and 300 (molecular ions + 1 for deuterated and undeuterated PEA). AEA, 2-AG and PEA levels were calculated on the basis of their area ratio with the internal deuterated standard signal areas, and their amounts (pmol) were normalized per mg of lipid extract.

[6] = system: RBL-2H3 cells; assay: β-Hexosaminidase release assay; type: cell-based, rat; conditions: substance alone 10 μM, 15 min, vs vehicle-treated cells
Procedure: as §1
SP-stimulated RBL-2H3 cells (2 × 10^5 cells/well) were treated with PEA (0.1, 0.5, 1, and 10 μM) or vehicle (methanol, max 0.1%) for 15 min at 37 °C in 5% CO2 atmosphere. After 15 min, the supernatants (15 μl) were transferred to 96-well plates and incubated with 60 μl of substrate (1 mM p-nitrophenyl-N-acetyl-β-D-glucosaminide in citrate 0.05 M, pH 4.5) for 1 h at 37 °C. To determine the total amount of released β-hexosaminidase, the cells were lysed with 0.1% Triton X-100 and incubated with substrate using the same procedure as for the determination of the activity in the supernatants. The reaction was stopped by adding 150 μl of 0.1 M sodium bicarbonate buffer (pH 10.0), and the reaction product was monitored by measuring the optical density (OD) at 405 nm by using a reader GENios Pro (Tecan). The results were expressed as % of the total β-hexosaminidase content of the cells determined by cell lysis with 0.1% Triton X-100, and calculated by using the following formula: % degranulation = [ODsupernatant/(ODsupernatant + ODtriton x−100)] × 100.

[7] = system: RBL-2H3 cells; assay: Quantitative real-time PCR of PEA/2-AG receptors and metabolic enzymes; type: cell-based, rat; conditions: cells stimulated 15 min with SP 10 μM or PEA 10 μM or both, vs unstimulated
Source text: The mRNA expression of PEA target genes (Cnr1, Cnr2, Trpv1, Ppara, and Gpr55), as well as PEA and 2-AG biosynthetic (N-acyl phosphatidylethanolamine-specific phospholipase D, Napepld, Dagla and Daglb) and catabolic enzyme genes (fatty acid amide hydrolase, Faah; N-acylethanolamine-hydrolyzing acid amidase, Naaa; and monoacylglycerol lipase, Mgl), was studied by comparison of transcriptional expression in unstimulated RBL-2H3 cells (plated on 100 mm diameter Petri dishes) vs. the expression of these targets and enzymes in RBL-2H3 cells treated with PEA (10 μM), or stimulated with SP (10 μM) in the presence and absence of PEA (10 μM), for 15 min at 37 °C in 5% CO2 atmosphere. Total RNA was purified, quantified and reverse transcribed as previously reported. For each target, all mRNA sequences were aligned and common primers were designed (Table 1). Quantitative real-time PCR was performed by an iCycler-iQ5 in a 20 μl reaction mixture using 20 ng of cDNA. Assays were performed in quadruplicate (maximum ΔCt of replicate samples < 0.5). Optimized primers for SYBR-green analysis and optimum annealing temperatures were designed by the Allele-Id software version 7.0 (Biosoft International) and were synthesized (HPLC-purification grade) by MWG-Biotech. […] Results were expressed as fold expression compared with a reference condition (2^^−∆∆ct formula).

[8] = SP (10 μM)-stimulated cells, compound 0.1 μM, 15 min, vs SP + vehicle
[9] = SP (10 μM)-stimulated cells, compound 1 μM, 15 min, vs SP + vehicle
[10] = compound alone 0.1 μM, in the absence of SP (data not shown)
[11] = SP-stimulated cells treated with OMDM188 10 μM in the presence of PEA 10 μM, vs SP + vehicle

Chain of human CB2 receptor (P34972 whole entry): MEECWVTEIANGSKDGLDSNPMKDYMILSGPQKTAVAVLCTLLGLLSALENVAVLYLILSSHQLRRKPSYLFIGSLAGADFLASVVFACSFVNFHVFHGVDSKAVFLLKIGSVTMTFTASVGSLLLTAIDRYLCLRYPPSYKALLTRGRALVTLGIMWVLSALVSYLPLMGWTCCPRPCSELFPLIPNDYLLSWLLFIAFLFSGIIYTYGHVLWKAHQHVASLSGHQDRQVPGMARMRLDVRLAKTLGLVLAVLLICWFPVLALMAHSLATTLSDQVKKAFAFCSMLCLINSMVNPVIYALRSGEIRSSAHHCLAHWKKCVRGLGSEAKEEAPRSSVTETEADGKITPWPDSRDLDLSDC

Question: What does the source list for `CCCCC/C=C\C/C=C\C/C=C\C/C=C\CCCC(=O)OC(CO)CO` [2-AG, 2-arachidonoylglycerol]?
Answer: histamine release [1, 8]: comparable; histamine release [1, 9]: able to reduce; number of degranulated cells [2, 8]: comparable; degranulation [2, 9]: able to reduce; IC50 [3]: 590 ± 160 nM

Question: For `COc1ccc(C(=O)c2c(C)n(CCN3CCOCC3)c3cc(I)ccc23)cc1` [AM630], which histamine release [1, 8] is on record?
Answer: Its histamine release is “comparable”.

Question: What about the histamine release [1, 10] of the same compound?
Answer: The histamine release was “No effect”.

Question: What about the “number of degranulated cells” value [2, 8] of the same compound?
Answer: The value was “comparable”.

Question: `CCCC(C)(C)c1ccc2c(c1)OC(C)(C)[C@@H]1CC=C(C)C[C@@H]21` [JWH133] was tested. Which histamine release [1, 8] did it give?
Answer: Its histamine release is “inhibited the release of histamine”.

Question: And the histamine release ([1]; SP-stimulated cells co-treated with JWH133 0.1 μM and AM630 0.1 μM, vs SP + vehicle)?
Answer: The histamine release was “comparable”.

Question: And the histamine release [1, 10]?
Answer: The histamine release was “No effect”.

Question: What about the “number of degranulated cells” value [2, 8] of the same compound?
Answer: Its value is “reduced the number of SP-degranulated RBL-2H3 cells”.

Question: What about the “number of degranulated cells” value ([2]; SP-stimulated cells co-treated with JWH133 0.1 μM and AM630 0.1 μM, vs SP + vehicle or SP + AM630) of the same compound?
Answer: Its value is “comparable”.

Question: And the degranulation [4]?
Answer: The degranulation was “no effect”.

Question: `CCCCCCCCCCC[C@@H](C[C@@H]1OC(=O)[C@H]1CCCCCC)OC(=O)[C@@H](NC=O)[C@@H](C)CC` [OMDM188] was tested. Which histamine release [1, 11] did it give?
Answer: Its histamine release is “comparable”.

Question: And the “number of degranulated cells” value [2, 11]?
Answer: Its value is “comparable”.

Question: And the “decrease of endogenous levels of 2-AG” value ([5]; SP-stimulated cells, compared to SP + PEA only)?
Answer: The value was 2.5 fold.

Question: And the “decrease of endogenous levels of 2-AG” value ([5]; unstimulated cells, compared to PEA 10 μM alone)?
Answer: The value was 2.4 fold.

Question: substance P [SP] was tested. Which β-hexosaminidase release [6] did it give?
Answer: The β-hexosaminidase release was “significantly released”.

Question: And the histamine release ([1]; substance alone 10 μM, 15 min, vs vehicle-treated cells)?
Answer: Its histamine release is “significantly released”.

Question: And the “number of degranulated cells” value ([2]; substance alone 10 μM, 15 min, vs vehicle)?
Answer: Its value is “increased the number of degranulated RBL-2H3 cells”.

Question: And the “endogenous levels of AEA, 2-AG, and PEA” value ([5]; SP 10 μM for 15 min, vs vehicle)?
Answer: The value was “did not change”.

Question: What about the “mRNA expression of Cnr2, Napepld, Naaa, Daglb, Faah and Mgl” value [7] of the same compound?
Answer: Its value is “no statistically significant change”.
